Converted amounts (≈) assume the structure as drawn. Where two headings read alike, the source gives them in different places.
Tests used:
E. coli strain ATCC25922 = test: MIC, broth microdilution antimicrobial susceptibility test (CLSI); assay type: cell-based; conditions: E. coli ATCC 25922, growth inhibited by ≥90%, 18 h; for MIC: Escherichia coli, ATCC25922, read-out: MIC^c: Minimum inhibitory concentration against E. coli
Text: (§1) This example illustrates the evaluation of 2,4,6-trisubstituted pyrimidines 14 for their antimicrobial activities against the Gram positive S. aureus strain ATCC29213 and the Gram negative E. coli strain ATCC25922 by measuring their MIC, which is the lowest concentration of an antimicrobial agent that prevents visible growth of a microorganism in a broth dilution susceptibility test according to the standard method approved by the Clinical and Laboratory Standards Institute (CLSI) guidelines.^21
(§2) Procedure of Antimicrobial susceptibility test: The MIC value of compounds was measured in the antimicrobial susceptibility test using the broth microdilution procedure in accordance with the CLSI guidelines.^21 Cation-adjusted Mueller Hinton broth (CA-MHB) was used for all the S. aureus strains in the assay. Cells in exponential phase of growth were diluted to approximately 5×10^5 cfu/mL. Stock solutions of each compound were freshly dissolved in dimethyl sulfoxide (DMSO). Then, serial dilutions of each compound in CA-MHB medium were added into 96-well microplate. The final percentage of DMSO in the assay was 1%. Control experiments were performed with 1% DMSO instead of the compound solution. After being incubated at 37° C. for 18 h, OD600 value of cells was measured on a microplate reader and the percentage of bacterial cell inhibition with respect to controls was calculated. The MIC value was defined as the lowest compound concentration at which the growth of bacteria was inhibited by ≥90%. Three independent assays were performed for each compound.

[1] = system: S. aureus strain ATCC29213; test: as above; assay type: cell-based; conditions: for MIC^c/MIC^b: Selectivity index: E. coli ATCC 25922 MIC over S. aureus 29213 MIC; for antibacterial activity in words (SAR analysis): MIC screening, S. aureus; for MIC: Staphylococcus aureus
Text: as §1, §2

[2] = system: S. aureus ATCC BAA-1717 (methicillin resistant); test: MIC against clinically isolated strain 2; assay type: cell-based; conditions: Staphylococcus aureus, ATCCBAA1717
Procedure: as §2
(§3) Results: Three compounds, namely 14av_amine16, 14dv_amine16 and 14dv_amine06, were selected to be tested against nine in-house clinically isolated bacterial strains including S. aureus ATCC29247, which is an ampicillin resistant strain, S. aureus ATCC BAA-41, ATCC BAA-1717, ATCC BAA-1720, ATCC 43300 which are methicillin resistant strains and four USA300 strains, (#417, #757, #1799 and #2690), which are the predominant strain type of community-associated MRSA strains in the United States.

[3] = system: USA300 #417 (community-associated MRSA); test: MIC against clinically isolated strain 6; assay type: cell-based, S. aureus; conditions: Staphylococcus aureus
Procedure: as §2, §3

[4] = system: S. aureus ATCC BAA-41 (methicillin resistant); test: MIC against clinically isolated strain 4; assay type: cell-based; conditions: Staphylococcus aureus, ATCCBAA41
Procedure: as §2, §3

[5] = system: S. aureus ATCC 29247 (ampicillin resistant strain); test: MIC against clinically isolated strain 1; assay type: cell-based; conditions: Staphylococcus aureus, ATCC29247
Procedure: as §2, §3

[6] = system: USA300 #2690 (community-associated MRSA); test: MIC against clinically isolated strain 9; assay type: cell-based, S. aureus; conditions: Staphylococcus aureus
Procedure: as §2, §3

[7] = system: USA300 #1799 (community-associated MRSA); test: MIC against clinically isolated strain 8; assay type: cell-based, S. aureus; conditions: Staphylococcus aureus
Procedure: as §2, §3

[8] = system: S. aureus ATCC BAA-1720 (methicillin resistant); test: MIC against clinically isolated strain 3; assay type: cell-based; conditions: Staphylococcus aureus, ATCCBAA1720
Procedure: as §2, §3

[9] = system: USA300 #757 (community-associated MRSA); test: MIC against clinically isolated strain 7; assay type: cell-based, S. aureus; conditions: Staphylococcus aureus
Procedure: as §2, §3

[10] = system: S. aureus ATCC 43300 (methicillin resistant); test: MIC against clinically isolated strain 5; assay type: cell-based; conditions: Staphylococcus aureus, ATCC43300
Procedure: as §2, §3

[11] = S. aureus 29213, growth inhibited by ≥90%, 18 h
[12] = ATCC29213, S. aureus 29213, growth inhibited by ≥90%, 18 h, read-out: MIC^b: Minimum inhibitory concentration against S. aureus
[13] = S. aureus ATCC29213, read-out: MIC against S. aureus

Compound	MIC^c: Minimum inhibitory concentration against E. coli (E. coli strain ATCC25922)	MIC^c/MIC^b: Selectivity index [1]	MIC^b: Minimum inhibitory concentration against S. aureus [1, 11]	antibacterial activity in words (SAR analysis) [1]	other results
CCC(CC)c1cc(CCN2CCCN(Cc3ccc(C(C)C)cc3)CC2)nc(-c2ccncc2)n1 [Compound 14av_amine06]	>125 µM	>7	16 µM (≈ 7.77 µg/mL)	–	–
CCC(CC)c1cc(CCN2CCCN(Cc3ccc(C(C)(C)C)cc3)CC2)nc(-c2ccncc2)n1 [Compound 14av_amine07]	>125 µM	>7	16 µM (≈ 8 µg/mL)	–	–
CCC(CC)c1cc(CCN2CCCN(Cc3ccc(Br)cc3)CC2)nc(-c2ccncc2)n1 [Compound 14av_amine08]	>125 µM	>7	16 µM (≈ 8.36 µg/mL)	–	–
CCC(CC)c1cc(CCN2CCCN(Cc3ccc(Cl)cc3)CC2)nc(-c2ccncc2)n1 [Compound 14av_amine13]	>125 µM	>9	13 µM (≈ 6.22 µg/mL)	–	–
CCC(CC)c1cc(CCN2CCCN(Cc3cccc(C(F)(F)F)c3)CC2)nc(-c2ccncc2)n1 [Compound 14av_amine17]	>125 µM	>7	16 µM (≈ 8.19 µg/mL)	–	–
CCC(CC)c1cc(CCN2CCCN(Cc3ccccc3C(F)(F)F)CC2)nc(-c2ccncc2)n1 [Compound 14av_amine18]	>125 µM	>7	16 µM (≈ 8.19 µg/mL)	–	–
CCC(CC)c1cc(CCN2CCCN(C(=O)c3ccc(C(F)(F)F)cc3)CC2)nc(-c2ccncc2)n1 [Compound 14av_amine19]	–	–	–	poor antibacterial activity	–
CCC(CC)c1cc(CCN2CCCN(CCc3ccc(C(F)(F)F)cc3)CC2)nc(-c2ccncc2)n1 [Compound 14av_amine20, 1-(2-(6-(pentan-3-yl)-2-(pyridin-4-yl)pyrimidin-4-yl)ethyl)-4-(4-(trifluoromethyl)phenethyl)-1,4-diazepane]	–	>15	–	low MIC value	MIC (E. coli strain ATCC25922): > 125 µM; MIC [1, 12]: 8 µM (≈ 4.21 µg/mL); MIC [1, 13]: 5 to 8 µM (≈ 2.63 to 4.21 µg/mL)
CCC(CC)c1cc(CCN2CCN(Cc3ccc(C(F)(F)F)cc3)CC2)nc(-c2ccncc2)n1 [Compound 14av_amine24]	>125 µM	>10	12 µM (≈ 5.97 µg/mL)	poor antibacterial activity	–
CCC(CC)c1cc(CCN2CCN(Cc3cccc(C(F)(F)F)c3)CC2)nc(-c2ccncc2)n1 [Compound 14av_amine28]	>125 µM	>12	10 µM (≈ 4.98 µg/mL)	–	–
CCC(CC)c1cc(CCN2CCCN(Cc3ccc(C(F)(F)F)cc3)CC2)nc(C)n1 [Compound 14aw_amine16]	–	–	–	weak antibacterial activity	–
CCC(CC)c1cc(CCN2CCCN(Cc3ccc(C(F)(F)F)cc3)CC2)nc(-c2ccccc2)n1 [Compound 14ax_amine16]	–	–	–	weak antibacterial activity	–
CCC(CC)c1cc(CCN2CCCN(Cc3ccc(C(F)(F)F)cc3)CC2)nc(-c2cccnc2)n1 [Compound 14ay_amine16]	–	–	–	weak antibacterial activity	–
CCC(CC)c1cc(CCN2CCCN(Cc3ccc(C(F)(F)F)cc3)CC2)nc(-c2ccccn2)n1 [Compound 14az_amine16]	–	–	–	weak antibacterial activity	–
CC(C)c1cc(CCN2CCCN(Cc3ccc(C(F)(F)F)cc3)CC2)nc(-c2ccncc2)n1 [Compound 14bv_amine16]	–	–	–	poor antibacterial activity	–
CCCCCc1cc(CCN2CCCN(Cc3ccc(C(C)C)cc3)CC2)nc(-c2ccncc2)n1 [Compound 14cv_amine06]	>125 µM	>12	10 µM (≈ 4.86 µg/mL)	–	–
CCCCCc1cc(CCN2CCCN(Cc3ccc(C(F)(F)F)cc3)CC2)nc(-c2ccncc2)n1 [Compound 14cv_amine16]	>125 µM	>12	10 µM (≈ 5.12 µg/mL)	poor antibacterial activity	–
CC(C)c1ccc(CN2CCCN(CCc3cc(-c4ccccc4)nc(-c4ccncc4)n3)CC2)cc1 [Compound 14dv_amine06, 1-(4-isopropylbenzyl)-4-(2-(6-phenyl-2-(pyridin-4-yl)pyrimidin-4-yl)ethyl)-1,4-diazepane]	–	>25	–	–	MIC [2]: 5 µM (≈ 2.46 µg/mL); MIC [3]: 10 µM (≈ 4.92 µg/mL); MIC (E. coli strain ATCC25922): > 125 µM; MIC [1, 12]: 5 µM (≈ 2.46 µg/mL); MIC [1, 13]: 5 to 8 µM (≈ 2.46 to 3.93 µg/mL); MIC [4]: 10 µM (≈ 4.92 µg/mL); MIC [5]: 5 µM (≈ 2.46 µg/mL); MIC [6]: 10 µM (≈ 4.92 µg/mL); MIC [7]: 10 µM (≈ 4.92 µg/mL); MIC [8]: 10 µM (≈ 4.92 µg/mL); MIC [9]: 10 µM (≈ 4.92 µg/mL); MIC [10]: 10 µM (≈ 4.92 µg/mL)
CC(C)(C)c1ccc(CN2CCCN(CCc3cc(-c4ccccc4)nc(-c4ccncc4)n3)CC2)cc1 [Compound 14dv_amine07, 1-(4-(tert-butyl)benzyl)-4-(2-(6-phenyl-2-(pyridin-4-yl)pyrimidin-4-yl)ethyl)-1,4-diazepane]	–	>25	–	–	MIC (E. coli strain ATCC25922): > 125 µM; MIC [1, 12]: 5 µM (≈ 2.53 µg/mL); MIC [1, 13]: 5 to 8 µM (≈ 2.53 to 4.05 µg/mL)
Brc1ccc(CN2CCCN(CCc3cc(-c4ccccc4)nc(-c4ccncc4)n3)CC2)cc1 [Compound 14dv_amine08, 1-(4-bromobenzyl)-4-(2-(6-phenyl-2-(pyridin-4-yl)pyrimidin-4-yl)ethyl)-1,4-diazepane]	–	>25	–	–	MIC (E. coli strain ATCC25922): > 125 µM; MIC [1, 12]: 5 µM (≈ 2.64 µg/mL); MIC [1, 13]: 5 to 8 µM (≈ 2.64 to 4.23 µg/mL)
Fc1cccc(CN2CCCN(CCc3cc(-c4ccccc4)nc(-c4ccncc4)n3)CC2)c1 [Compound 14dv_amine10]	>125 µM	>12	10 µM (≈ 4.68 µg/mL)	–	–
Fc1ccc(CN2CCCN(CCc3cc(-c4ccccc4)nc(-c4ccncc4)n3)CC2)cc1F [Compound 14dv_amine12]	>125 µM	>12	10 µM (≈ 4.86 µg/mL)	–	–
FC(F)(F)c1ccc(CN2CCCN(CCc3cc(-c4ccccc4)nc(-c4ccncc4)n3)CC2)cc1 [Compound 14dv_amine16, 1-(2-(6-phenyl-2-(pyridin-4-yl)pyrimidin-4-yl)ethyl)-4-(4-(trifluoromethyl)benzyl)-1,4-diazepane]	–	>25	–	–	MIC [2]: 5 µM (≈ 2.59 µg/mL); MIC [3]: 10 µM (≈ 5.18 µg/mL); MIC (E. coli strain ATCC25922): > 125 µM; MIC [1, 12]: 5 µM (≈ 2.59 µg/mL); MIC [1, 13]: 5 to 8 µM (≈ 2.59 to 4.14 µg/mL); MIC [4]: 10 µM (≈ 5.18 µg/mL); MIC [5]: 5 µM (≈ 2.59 µg/mL); MIC [6]: 10 µM (≈ 5.18 µg/mL); MIC [7]: 10 µM (≈ 5.18 µg/mL); MIC [8]: 10 µM (≈ 5.18 µg/mL); MIC [9]: 10 µM (≈ 5.18 µg/mL); MIC [10]: 10 µM (≈ 5.18 µg/mL)
FC(F)(F)c1ccc(CCN2CCCN(CCc3cc(-c4ccccc4)nc(-c4ccncc4)n3)CC2)cc1 [Compound 14dv_amine20, 1-(2-(6-phenyl-2-(pyridin-4-yl)pyrimidin-4-yl)ethyl)-4-(4-(trifluoromethyl)phenethyl)-1,4-diazepane]	–	>25	–	–	MIC (E. coli strain ATCC25922): > 125 µM; MIC [1, 12]: 5 µM (≈ 2.66 µg/mL); MIC [1, 13]: 5 to 8 µM (≈ 2.66 to 4.25 µg/mL)

Source: US9951039B2, “Pyrimidines for treatment of bacterial infections” (The Hong Kong Polytechnic University, priority 2016, dated 2018)
